According to patent publication US20210238169A1, “PROCESS FOR PREPARING A COMPOUND OF FORMULA (XIII)” (PULMOCIDE LIMITED, priority 2014, published 2021):
≈ marks a conversion by molar mass, not a printed value. Where two headings read alike, the source gives them in different places.

Columns and labels:
Penicillium chrysogenum = assay: Fungus panel screening, CLSI broth microdilution; type: cell-based; details: strain ATCC9480, visual inspection (CLSI); for MIC: read-out: MIC100
Description: (§1) Fungus panel screening was conducted by Eurofins Panlabs Inc. The MIC and MIC50 values of the test articles were determined following the guidelines of the Clinical and Laboratory Standards Institute, broth microdilution methods for yeast (CLSI M27-A2), (CLSI, 2002) and for filamentous fungi (CLSI M38-A), (CLSI, 2008).

Rhizopus oryzae = assay: Fungus panel screening, CLSI broth microdilution; type: cell-based; details: Rhizopus arrhizus, strain ATCC11145, visual inspection (CLSI); for MIC: read-out: MIC100
Description: as §1

Chaetomium globosum = assay: Fungus panel screening, CLSI broth microdilution; type: cell-based; details: strain ATCC44699, visual inspection (CLSI); for MIC: read-out: MIC100
Description: as §1

Candida albicans = assay: Fungus panel screening, CLSI broth microdilution; type: cell-based; details: for MIC50 / MIC: Candida albicans; for MIC: read-out: MIC100
Description: as §1

Trichophyton rubrum = assay: Fungus panel screening, CLSI broth microdilution; type: cell-based; details: strain ATCC10218, visual inspection (CLSI); for MIC: read-out: MIC100
Description: as §1

Candida glabrata = assay: Fungus panel screening, CLSI broth microdilution; type: cell-based; details: Nakaseomyces glabratus; for MIC: read-out: MIC100
Description: as §1

[1] = Fungus panel screening, CLSI broth microdilution; type: cell-based, Aspergillus pullulans; details: Aspergillus
Description: as §1

[2] = test system: Aspergillus fumigatus isolates; assay: Broth microdilution assay of planktonic fungal growth (modified EUCAST); type: cell-based; details: Aspergillus fumigatus; isolate NCPF7100, broth microdilution; read-out: MIC75
Aspergillus fumigatus = Aspergillus fumigatus infection of BEAS2B bronchial epithelial cells (GM in supernatant); type: cell-based
Description: BEAS2B cells were seeded in 96-well plates (100 μL; 30,000 cells/well; Catalogue No 3596, Sigma Aldrich, Dorset, UK) in 10% FBS RPMI-1640 and were then incubated (37° C., 5% CO2) for one day before experimentation. Test compounds (0.5 μL DMSO solution) or vehicle (DMSO) were added to each well to give a final DMSO concentration of 0.5%. BEAS2B cells were incubated with test compounds for 1 hr (35° C., 5% CO2) before infection with Aspergillus fumigatus (20 μL; Public Health England) conidia suspension (0.5×10^5/ml in 10% FBS RPMI-1640). The plate was incubated for 24 hr (35° C., 5% CO2). Supernatant (50 μL) was collected and transferred to a PCR plate (Catalogue No L1402-9700, Starlab, Milton Keynes, UK), which was frozen (−20° C.) until use. After thawing, supernatant (5 μL) was diluted 1:20 by adding R7-PBS solution (95 μL; 1:4 R7 to PBS; Bio-Rad Laboratories, Redmond, Wash., USA). GM levels in these samples (50 μL) were measured using Platelia GM-EIA kits (Bio-Rad Laboratories, Redmond, Wash., USA). The percentage inhibition for each well was calculated and the IC50 value was calculated from the concentration-response curve generated for each test compound.

[3] = test system: Aspergillus fumigatus (NCPF2010); assay: Resazurin-microtitre assay of planktonic fungal growth; type: cell-based; details: Aspergillus fumigatus; for MIC: read-out: Planktonic fungal growth MIC75
Description: This assay was conducted using a modified, published method (Monteiro et al., 2012). Spores of Aspergillus fumigatus (NCPF2010, Public Health England, Wiltshire) were cultured in Sabouraud dextrose agar for 3 days. A stock spore suspension was prepared from a Sabouraud dextrose agar culture by washing with PBS-tween (10 mL; PBS containing 0.05% Tween-20, 100 U/mL Penicillin and 100 U/mL Streptomycin). The spore count was assessed using a Neubauer haemocytometer and, using PBS, adjusted to 10^6 spores/mL. A working suspension of spores (10^4 spores/mL) was prepared in filter sterilised MOPS RPMI-1640 (50 mL; RPMI-1640 containing 2 mM L-glutamine, 2% glucose and 0.165 M MOPS, buffered to pH 7 with NaOH). Resazurin sodium salt (100 μL of 1% solution; Sigma-Aldrich, Dorset, UK) was added to the spore suspension and mixed well. The spore suspension-resazurin mixture (100 μL/well) was added to 384-well plates (Catalogue number 353962, BD Falcon, Oxford, UK). Simultaneously, test compounds (0.5 μL DMSO solution) were added to 100 μL of the spore-resazurin mixture in quadruplicate to provide a final DMSO solution of 0.5% using an Integra VIAFLO 96 (Intergra, Zizers, Switzerland). For non-spore control wells, MOPS-RPMI-resazurin solution (100 μL) was added instead of the spore-resazurin mixture. The plate was covered with a Breathe Easier membrane (Catalogue No Z763624, Sigma-Aldrich, Dorset, UK), and incubated (35° C., 5% CO2) until fluorescence in the inoculated wells was double that of the control wells (around 24 hr). The fluorescence of each well (545 nm (excitation)/590 nm (emission), gain 800, focal height 5.5 mm) was determined using a multi-scanner (Clariostar: BMG, Buckinghamshire, UK). The percentage inhibition for each well was calculated and the MIC50, MIC75 and MIC90 values were calculated from the concentration-response curve generated for each test compound.

[4] = Cell viability: resazurin assay; type: cell-based, human; details: human, n = 1-5
Description: BEAS2B cells were seeded in 384-well plates (100 μL; 3000/well/; BD Falcon, Catalogue No 353962) in RPMI-LHC8 (RPMI-1640 and LHC8 media combined in equal proportions) one day before experimentation. For cell-free control wells, RPMI-LHC8 (100 μL) was added. Test compounds (0.5 μL of a DMSO solution) were added to give a final DMSO concentration of 0.5% using an Integra VIAFLO 96 (Integra, Zizers, Switzerland). BEAS2B cells were incubated with each test compound for 1 day (37° C./5% CO2 in RPMI-LHC8). After addition of resazurin stock solution (5 μL, 0.04%) the plates were incubated for a further 4 hr (37° C./5% CO2). The fluorescence of each well at 545 nm (excitation) and 590 nm (emission) was determined using a multi-scanner (Clariostar: BMG Labtech). The percentage loss of cell viability was calculated for each well relative to vehicle (0.5% DMSO) treatment. Where appropriate, a CC50 value was calculated from the concentration-response curve generated from the concentration-response curve for each test compound.

[5] = ATCC10231, strain ATCC10231, visual inspection (CLSI)
[6] = strain 20183.073, visual inspection (CLSI)
[7] = strain 20186.025, visual inspection (CLSI)
[8] = strain 20240.047, visual inspection (CLSI)
[9] = strain ATCC10231, visual inspection (CLSI)
[10] = strain ATCC36583, visual inspection (CLSI)
[11] = strain R363, visual inspection (CLSI)
[12] = strain ATCC9348, visual inspection (CLSI), read-out: MIC50
[13] = strain ATCC9348, visual inspection (CLSI), read-out: MIC100

Structure (SMILES)	MIC50 (Penicillium chrysogenum)	MIC (Penicillium chrysogenum)	MIC50 (Rhizopus oryzae)	MIC (Rhizopus oryzae)	MIC50 (Chaetomium globosum)	MIC (Chaetomium globosum)	MIC50 (Candida albicans; [5])	MIC50 (Candida albicans; [6])	MIC50 (Candida albicans; [7])	MIC50 (Candida albicans; [8])	MIC (Candida albicans; [8])	MIC (Candida albicans; [9])	MIC50 (Trichophyton rubrum)	MIC (Trichophyton rubrum)	MIC50 (Candida glabrata; [10])	MIC (Candida glabrata; [10])	MIC50 (Candida glabrata; [11])	MIC (Candida glabrata; [11])	MIC [2]	MIC50 (Aspergillus fumigatus)	also measured
Cc1cc(N2CCN(c3ccc(C(=O)Nc4ccc(F)cc4)cc3)CC2)ccc1OC[C@@H]1CO[C@@](Cn2cncn2)(c2ccc(F)cc2F)C1 [Compound (I), 4-(4-(4-(((3R,5R)-5-((1H-1,2,4-triazol-1-yl)methyl)-5-(2,4-difluorophenyl)tetrahydrofuran-3-yl)methoxy)-3-methylphenyl)piperazin-1-yl)-N-(4-fluorophenyl)benzamide]	0.031 µg/mL (≈ 0.0454 µM)	> 8 µg/mL	0.063 µg/mL (≈ 0.0923 µM)	2 µg/mL (≈ 2.93 µM)	0.063 µg/mL (≈ 0.0923 µM)	> 8 µg/mL	0.13 µg/mL (≈ 0.19 µM)	0.5 µg/mL (≈ 0.732 µM)	> 8 µg/mL	0.031 µg/mL (≈ 0.0454 µM)	> 8 µg/mL	> 8 µg/mL	< 0.008 µg/mL	0.031 µg/mL (≈ 0.0454 µM)	0.5 µg/mL (≈ 0.732 µM)	> 8 µg/mL	0.5 µg/mL (≈ 0.732 µM)	> 8 µg/mL	0.0197 µM (≈ 13.5 ng/mL)	0.00543 µM (≈ 3.71 ng/mL)	MIC50 [1, 12]: > 8 µg/mL; MIC [1, 13]: > 8 µg/mL; MIC50 [3]: 0.00198 µM (≈ 1.35 ng/mL); MIC [3]: 0.00502 µM (≈ 3.43 ng/mL); CC50 at 1 day ([4]; BEAS2B cells): > 12.2 µM
CC[C@@H]([C@H](C)O)n1ncn(-c2ccc(N3CCN(c4ccc(OC[C@@H]5CO[C@@](Cn6cncn6)(c6ccc(F)cc6F)C5)cc4)CC3)cc2)c1=O [Posaconazole]	0.063 µg/mL (≈ 0.0899 µM)	0.13 µg/mL (≈ 0.186 µM)	0.13 µg/mL (≈ 0.186 µM)	> 8 µg/mL	0.13 µg/mL (≈ 0.186 µM)	0.25 µg/mL (≈ 0.357 µM)	0.13 µg/mL (≈ 0.186 µM)	0.25 µg/mL (≈ 0.357 µM)	> 8 µg/mL	0.031 µg/mL (≈ 0.0442 µM)	> 8 µg/mL	> 8 µg/mL	< 0.008 µg/mL	0.031 µg/mL (≈ 0.0442 µM)	0.5 µg/mL (≈ 0.713 µM)	> 8 µg/mL	0.5 µg/mL (≈ 0.713 µM)	> 8 µg/mL	0.0715 µM (≈ 50.1 ng/mL)	0.00448 µM (≈ 3.14 ng/mL)	MIC100 (Candida albicans; [7]): >8.0 µg/mL; MIC50 [1, 12]: 0.25 µg/mL (≈ 0.357 µM); MIC [1, 13]: 1 µg/mL (≈ 1.43 µM); MIC50 [3]: 0.00364 µM (≈ 2.55 ng/mL); MIC [3]: 0.00694 µM (≈ 4.86 ng/mL); CC50 at 1 day ([4]; BEAS2B cells): > 14.3 µM
C[C@@H](c1ncncc1F)[C@](O)(Cn1cncn1)c1ccc(F)cc1F [Voriconazole]	1 µg/mL (≈ 2.86 µM)	2 µg/mL (≈ 5.73 µM)	8 µg/mL (≈ 22.9 µM)	> 8 µg/mL	0.5 µg/mL (≈ 1.43 µM)	1 µg/mL (≈ 2.86 µM)	0.25 µg/mL (≈ 0.716 µM)	4 µg/mL (≈ 11.5 µM)	> 8 µg/mL	0.031 µg/mL (≈ 0.0887 µM)	> 8 µg/mL	> 8 µg/mL	< 0.008 µg/mL	0.063 µg/mL (≈ 0.18 µM)	0.25 µg/mL (≈ 0.716 µM)	> 8 µg/mL	> 8 µg/mL	> 8 µg/mL	0.596 µM (≈ 208 ng/mL)	0.154 µM (≈ 53.8 ng/mL)	MIC100 (Candida albicans; [7]): >8.0 µg/mL; MIC50 ([1]; ATCC9348): > 8 µg/mL; MIC ([1]; ATCC9348, read-out: MIC100): > 8 µg/mL; MIC50 [3]: 0.0908 µM (≈ 31.7 ng/mL); MIC [3]: 0.168 µM (≈ 58.7 ng/mL); CC50 at 1 day ([4]; read-out: BEAS2B Cell Viability CC50): > 28.6 µM
